Data taken from paper PMC8343220, “The selectivity of α‐adrenoceptor agonists for the human α1A, α1B, and α1D‐adrenoceptors” (Pharmacology Research & Perspectives, 2021).
Read-outs that look alike come from different tables or passages of the source.

What was measured:
[1] = molecular target: T1, human α1D‐adrenoceptor (full length) (Homo sapiens, UniProt P25100); test: ERK1/2‐phosphorylation (Surefire Alphascreen), CHO‐α1D cells; format: cell-based; details: for ERK1/2‐phosphorylation % PDBu at 10 µM: response at 10 µM ligand (no EC50 given)
T1 construct: human α1D‐adrenoceptor (full length) were used; expressed in transfected cells; host or cells: CHO-K1
T1 sequence (P25100 1-572): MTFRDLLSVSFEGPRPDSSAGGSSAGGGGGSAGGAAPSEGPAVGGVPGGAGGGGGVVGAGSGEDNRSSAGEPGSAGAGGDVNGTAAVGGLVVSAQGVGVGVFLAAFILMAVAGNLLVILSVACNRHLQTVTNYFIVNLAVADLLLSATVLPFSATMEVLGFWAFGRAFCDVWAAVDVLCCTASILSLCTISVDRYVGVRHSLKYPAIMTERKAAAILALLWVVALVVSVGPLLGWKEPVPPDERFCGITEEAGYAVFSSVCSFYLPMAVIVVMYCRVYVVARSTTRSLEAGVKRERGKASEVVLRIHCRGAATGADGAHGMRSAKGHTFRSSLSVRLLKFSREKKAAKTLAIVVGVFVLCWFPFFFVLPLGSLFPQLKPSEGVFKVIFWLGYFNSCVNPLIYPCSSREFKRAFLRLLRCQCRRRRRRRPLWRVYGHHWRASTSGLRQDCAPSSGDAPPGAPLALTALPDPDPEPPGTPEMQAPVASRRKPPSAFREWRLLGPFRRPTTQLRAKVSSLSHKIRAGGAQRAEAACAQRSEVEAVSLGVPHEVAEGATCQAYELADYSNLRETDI

[2] = molecular target: T1, human α1D‐adrenoceptor (full length); test: Intracellular free calcium mobilization, CHO‐α1D cells; format: cell-based; details: for Intracellular calcium release % ionomycin: maximal response as % of 10 µM ionomycin
human α1A‐adrenoceptor [3] = molecular target: T2, human α1A‐adrenoceptor (Homo sapiens, UniProt P35348); test: Intracellular free calcium mobilization, CHO‐α1A cells; format: cell-based; details: for Intracellular calcium release % ionomycin at 10 µM: response at 10 μM ligand
T2 construct: expressed in transfected cells; host or cells: CHO-K1
T2 sequence (P35348 1-466): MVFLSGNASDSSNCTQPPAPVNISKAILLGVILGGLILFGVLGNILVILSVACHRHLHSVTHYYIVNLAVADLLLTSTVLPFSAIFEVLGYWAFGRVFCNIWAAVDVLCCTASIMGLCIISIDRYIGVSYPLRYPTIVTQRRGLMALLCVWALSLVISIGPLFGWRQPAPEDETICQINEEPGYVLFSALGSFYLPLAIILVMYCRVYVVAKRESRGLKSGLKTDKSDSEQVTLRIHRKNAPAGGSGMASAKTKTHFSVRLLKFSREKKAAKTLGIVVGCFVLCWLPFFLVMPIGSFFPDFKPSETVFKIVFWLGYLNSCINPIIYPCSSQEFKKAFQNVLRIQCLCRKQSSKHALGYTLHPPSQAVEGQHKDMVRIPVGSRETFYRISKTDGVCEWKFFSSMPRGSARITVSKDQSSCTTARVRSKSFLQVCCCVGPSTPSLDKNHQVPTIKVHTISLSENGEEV

human α1B‐adrenoceptor [4] = molecular target: T3, human α1B‐adrenoceptor (Homo sapiens, UniProt P35368); test: ^3H‐prazosin whole‐cell radioligand binding, CHO‐α1B cells; details: for Log KD α1B, ^3H‐prazosin whole cell binding: given as log KD (negative), mean ± SEM
T3 construct: expressed in transfected cells; host or cells: CHO-K1
T3 sequence (P35368 1-520): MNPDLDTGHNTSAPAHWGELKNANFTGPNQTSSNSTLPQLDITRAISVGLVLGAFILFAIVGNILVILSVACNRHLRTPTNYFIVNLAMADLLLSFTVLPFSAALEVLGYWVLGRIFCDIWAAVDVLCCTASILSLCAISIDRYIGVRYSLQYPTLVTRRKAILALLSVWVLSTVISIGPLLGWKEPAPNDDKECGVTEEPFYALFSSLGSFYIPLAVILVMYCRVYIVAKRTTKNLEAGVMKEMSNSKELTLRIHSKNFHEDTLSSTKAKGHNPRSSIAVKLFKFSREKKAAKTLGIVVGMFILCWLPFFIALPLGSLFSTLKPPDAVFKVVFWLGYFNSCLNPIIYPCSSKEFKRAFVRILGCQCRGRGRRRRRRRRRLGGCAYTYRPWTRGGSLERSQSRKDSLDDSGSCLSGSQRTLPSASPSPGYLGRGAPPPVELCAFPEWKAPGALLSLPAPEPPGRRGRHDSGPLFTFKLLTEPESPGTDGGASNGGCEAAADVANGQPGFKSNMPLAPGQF

human α1A‐adrenoceptor [5] = molecular target: T2, human α1A‐adrenoceptor; test: ^3H‐prazosin whole‐cell radioligand binding, CHO‐α1A cells; details: for Log KD α1A, ^3H‐prazosin whole cell binding: given as log KD (negative), mean ± SEM; for Affinity selectivity ratio α1A vs α1D: higher affinity for α1A than α1D
[6] = molecular target: T1, human α1D‐adrenoceptor (full length); test: ^3H‐prazosin whole‐cell radioligand binding, CHO‐α1D cells; details: for 3H‐prazosin binding Log KD: whole‐cell binding (from Table 1), log values given negative; for Log KD α1D, ^3H‐prazosin whole cell binding: given as log KD (negative), mean ± SEM, 'early plateau' = specific binding not fully inhibited
human α1B‐adrenoceptor [7] = molecular target: T3, human α1B‐adrenoceptor; test: Intracellular free calcium mobilization, CHO‐α1B cells; format: cell-based; details: for Intracellular calcium release % ionomycin: maximal response as % of 10 µM ionomycin response
[8] = test system: parental CHO cell line without any transfected receptors; test: ERK1/2‐phosphorylation, parent CHO cells without transfected receptors; format: cell-based, Chinese hamster; details: for ERK1/2-phosphorylation % PDBu: maximal response as % of PDBu (10μM) response
human α1B‐adrenoceptor [9] = molecular target: T3, human α1B‐adrenoceptor; test: ERK1/2‐phosphorylation (Surefire Alphascreen), CHO‐α1B cells; format: cell-based
[10] = CHO‐α1D cells, log values given negative
[11] = CHO‐α1D cells, maximal response as % of PDBu
[12] = CHO‐α1B cells, whole‐cell binding (from Table 1), given as log KD (negative numbers)
[13] = higher affinity for α1A than α1B
[14] = CHO cells without transfected receptors, mean ± s.e.m.
[15] = CHO‐α1B cells, given as log EC50 (negative numbers)
[16] = CHO‐α1A cells, no EC50 obtained
[17] = higher affinity for α1D than α1B

SMILES | ERK1/2‐phosphorylation Log EC50 [1, 10] | ERK1/2‐phosphorylation % PDBu [1, 11] | Intracellular calcium release Log EC50 [2, 10] | Intracellular calcium release % ionomycin ([2]; CHO‐α1D cells) | Log KD, ^3H‐prazosin binding (human α1B‐adrenoceptor [4]; [12]) | Log KD α1B, ^3H‐prazosin whole cell binding (human α1B‐adrenoceptor [4]; CHO‐α1B cells) | Affinity selectivity ratio α1A vs α1B (human α1A‐adrenoceptor [5]; [13]) | 3H‐prazosin binding Log KD ([6]; CHO‐α1D cells) | ERK1/2-phosphorylation % PDBu [8, 14] | ERK1/2-phosphorylation Log EC50 [8, 14] | Log KD α1A, ^3H‐prazosin whole cell binding (human α1A‐adrenoceptor [5]; CHO‐α1A cells) | Log KD α1D, ^3H‐prazosin whole cell binding ([6]; CHO‐α1D cells) | further results
CCN1CCc2nc(N)oc2CC1 [BHT933] | No response | No response | No response | No response | No binding | No binding | >4.0 fold | −3.70 | – | – | – | – | Intracellular calcium release % Ionomycin at 100 µM (human α1A‐adrenoceptor [3]; CHO‐α1A cells, response at 100 μM ligand, no EC50 obtained): 25.5 ± 3.7%; Log KD α1A (apparent), ^3H‐prazosin whole cell binding (human α1A‐adrenoceptor [5]; CHO‐α1A cells, apparent KD: maximum concentration did not inhibit all specific binding, IC50 extrapolated): −3.60 ± 0.06^apparent; Log KD α1D (apparent), ^3H‐prazosin whole cell binding ([6]; CHO‐α1D cells, apparent KD: maximum concentration did not inhibit all specific binding, IC50 extrapolated): −3.70 ± 0.18^apparent; Affinity selectivity ratio α1A vs α1D ([6]; higher affinity for α1D than α1A): 1.3 fold; Intracellular calcium release % Ionomycin at 100 µM (human α1B‐adrenoceptor [7]; CHO‐α1B cells, response at 100 µM ligand (no EC50 given), % of ionomycin response): 16.6 ± 2.1%
Cc1ccc(/N=C/N(C)/C=N/c2ccc(C)cc2C)c(C)c1 [Amitraz] | – | – | – | – | – | – | – | – | No response | – | – | – | ERK1/2‐phosphorylation % PDBu [1]: No response; ERK1/2‐phosphorylation Log EC50 [1]: No response; Intracellular calcium release Log EC50 [2]: No response; Intracellular calcium release Log EC50 (human α1A‐adrenoceptor [3]): No response; Affinity selectivity ratio α1A vs α1B (human α1A‐adrenoceptor [5]): >33.1 fold; ERK1/2-phosphorylation Log EC50 [8]: No response; Affinity selectivity ratio α1B vs α1D [6]: >12.0 fold; Intracellular calcium release Log EC50 (human α1B‐adrenoceptor [7]): No response
CN[C@@H](C)[C@H](O)c1ccccc1 [Epdedrine] | – | – | – | – | – | – | – | – | – | – | – | – | ERK1/2‐phosphorylation % PDBu (human α1B‐adrenoceptor [9]): 19.1 ± 4.0%; ERK1/2‐phosphorylation Log EC50 (human α1B‐adrenoceptor [9]): −4.67 ± 0.17; Intracellular calcium release % Ionomycin at 100 µM (human α1B‐adrenoceptor [7]): 18.5 ± 2.9%
CCCC(=O)O[C@@H]1[C@@H](C)[C@@]2(O)[C@@H](C=C(CO)C[C@]3(O)C(=O)C(C)=C[C@@H]23)[C@@H]2C(C)(C)[C@]12OC(=O)CCC [PDBu, Phorbol 12,13‐dibutyrate] | – | – | – | – | – | – | – | – | – | – | – | – | ERK1/2‐phosphorylation response fold over basal [8]: 7.5 ± 0.9 fold over basal
O=C1Cc2cc(CCN3CCN(c4nsc5ccccc45)CC3)c(Cl)cc2N1 [ziprasidone] | – | – | – | – | – | – | – | – | No response | No response | – | – | –
C[C@](N)(Cc1ccc(O)c(O)c1)C(=O)O [Methyldopa] | No response | No response | No response | No response | No binding | No binding | – | – | No response | No response | No binding | No binding | Intracellular calcium release Log EC50 (human α1A‐adrenoceptor [3]; CHO‐α1A cells, given as log EC50 (negative)): No response; Intracellular calcium release % ionomycin (human α1A‐adrenoceptor [3]; CHO‐α1A cells, maximal response as % of 10 µM ionomycin): No response; IC50 ([6]; CHO‐α1D cells, whole‐cell binding, given as IC50 > log value): > 100 µM; Intracellular calcium release Log EC50 (human α1B‐adrenoceptor [7]; [15]): No response; Intracellular calcium release % ionomycin (human α1B‐adrenoceptor [7]; CHO‐α1B cells): No response
O=C1Cc2cc(CCN3CCN(c4nsc5ccccc45)CC3)c(Cl)cc2N1 [Ziprasidone] | – | – | No response | No response | – | – | – | – | – | – | – | – | ERK1/2‐phosphorylation % PDBu at 10 µM ([1]; CHO‐α1D cells): 4.6 ± 2.7%
c1ccc2c(c1)CCCC2C1=NCCN1 (stereo not shown) [Tetrohydrozoline] | – | – | – | – | – | – | – | – | – | – | – | – | Log KD, ^3H‐prazosin binding (human α1B‐adrenoceptor [4]): −5.22; ERK1/2‐phosphorylation % PDBu (human α1B‐adrenoceptor [9]): No response; ERK1/2‐phosphorylation Log EC50 (human α1B‐adrenoceptor [9]): No response; Intracellular calcium release % Ionomycin at 100 µM (human α1B‐adrenoceptor [7]): 2.9 ± 1.4%
C1=C(c2cnc[nH]2)c2ccsc2CC1 [RWJ52353] | No response | No response | No response | No response | – | – | >190 fold | −4.30 | No response | No response | −5.28 ± 0.08 | −4.30 ± 0.12 | Intracellular calcium release % ionomycin at 10 µM (human α1A‐adrenoceptor [3]; [16]): 39.4 ± 2.4%; Log IC50 α1B, ^3H‐prazosin whole cell binding (human α1B‐adrenoceptor [4]; CHO‐α1B cells, printed as IC50> log value): IC50 >−3; Affinity selectivity ratio α1A vs α1D (human α1A‐adrenoceptor [5]): 9.6 fold; Affinity selectivity ratio α1B vs α1D [6, 17]: >20 fold; Intracellular calcium release % ionomycin at 10 µM (human α1B‐adrenoceptor [7]; CHO‐α1B cells, response at 10 µM ligand (no EC50 given), % of ionomycin response): 8.1 ± 3.1%
Cc1sc(C)c2c1CCC=C2c1cnc[nH]1.O=C(O)/C=C\C(=O)O [T‐CG 1000] | – | – | No response | No response | −5.18 | −5.18 ± 0.06 | 6.0 fold | −5.91 | – | – | −5.96 ± 0.05 | −5.91 ± 0.12 | ERK1/2‐phosphorylation % PDBu at 10 µM ([1]; CHO‐α1D cells): 16.3 ± 5.9%; Intracellular calcium release % ionomycin at 10 µM (human α1A‐adrenoceptor [3]; [16]): 21.0 ± 1.9%; Affinity selectivity ratio α1A vs α1D (human α1A‐adrenoceptor [5]): 1.1 fold; Affinity selectivity ratio α1B vs α1D [6, 17]: 5.4 fold; Intracellular calcium release Log EC50 (human α1B‐adrenoceptor [7]; [15]): No response; Intracellular calcium release % ionomycin (human α1B‐adrenoceptor [7]; CHO‐α1B cells): No response
